Where two headings read alike, the source gives them in different places. Square brackets hold non-standard residues; d marks the D form. Peptide text beside a SMILES is read from it. sY = N[C@@H](Cc1ccc(OS(=O)(=O)O)cc1)C(=O)O; pGlu = O=C1CC[C@@H](C(=O)O)N1

Data set [1] concerns patients suffering from chronic pain in cancer diseases. Conditions: i.v. bolus 1 nanogram/kg, single patients.
In data set [2] the test system is patients with pain after surgery.

For the compound `CSCC[C@H](NC(=O)[C@H](Cc1c[nH]c2ccccc12)NC(=O)CNC(=O)[C@@H](NC(=O)[C@H](Cc1ccc(OS(=O)(=O)O)cc1)NC(=O)[C@H](CC(=O)O)NC(=O)[C@H](CCC(N)=O)NC(=O)[C@@H]1CCC(=O)N1)[C@@H](C)O)C(=O)N[C@@H](CC(=O)O)C(=O)N[C@@H](Cc1ccccc1)C(N)=O` [Ceruletide, ceruletide] ([pGlu]QD[sY]TGWMDF-NH2), the Side-effects entry in data set [1] was “None”; in data set [2] (i.m. 0.05 micrograms/kg, single patients (incl. second injection in patients 34, 40)) it was “None”; in data set [2] (i.m. 0.1 micrograms/kg, single patients) it was “None and Burning sensation at the injection site and pain sensation at the injection site”.

The record behind these values is patent publication US4400377A, “Use of polypeptides as analgesic drugs” (priority 1982, dated 1983).
